Measured values as given in ChEMBL document CHEMBL3596189, “Perspective: Challenges and opportunities in TB drug discovery from phenotypic screening” (Bioorg Med Chem, 2015).
Values after ≈ are worked out from the molar mass of the structure shown.

Tests used:
[1] = system: Mycobacterium tuberculosis; test: Antimycobacterial activity against Mycobacterium tuberculosis assessed as inhibition of bacterial growth measured in glycerol-containing medium; format: functional
[2] = system: Mycobacterium tuberculosis; test: Antimycobacterial activity against Mycobacterium tuberculosis infected in mouse assessed as reduction of lung bacterial load at 25 mg/kg, po; format: functional
[3] = Elimination half life in mouse; format: ADME, organism-based; conditions: in vivo, read-out: beta t1/2 (converted)
[4] = Volume of distribution in mouse; format: ADME, organism-based; conditions: in vivo
[5] = Systemic clearance in mouse; format: ADME, organism-based; conditions: in vivo
[6] = Oral bioavailability in mouse; format: ADME, organism-based; conditions: in vivo
[7] = system: Mycobacterium tuberculosis; test: Antimycobacterial activity against Mycobacterium tuberculosis infected in mouse assessed as log reduction of lung bacterial load at 50 mg/kg administered for 4 weeks; format: functional

Row | Structure (SMILES) | MIC50 [1] | further results
1 | Cc1nc2ccccn2c1C(=O)NCc1ccccc1 | 0.2 µM (≈ 0.0531 µg/mL) | 
2 | Cc1cc(C)c2cc(C(=O)NC3CCCCC3)[nH]c2c1 | 0.8 µM (≈ 0.216 µg/mL) | 
3 | Cc1ccc([C@H]2C[C@@H](C(F)(F)F)n3ncc(C(=O)NCc4ccc(F)cc4)c3N2)cc1 | 0.2 µM (≈ 0.0865 µg/mL) | log10cfu [2]: 3.5
4 | CC1(C)CCC(NC(=O)c2cc3c(Cl)cc(Cl)cc3[nH]2)CC1 | 0.02 µM (≈ 0.00679 µg/mL) | half-life [3]: 306 min; Vd [4]: 4.1 L/kg; clearance [5]: 18.1 mL/min/kg; bioavailability [6]: > 50%
5 | CC(=O)Nc1ccc(C)c(Nc2nccn2-c2cc(NC3CC3)ncn2)c1 | 1 µM (≈ 0.363 µg/mL) | 
6 | Cc1ccc(CNC(=O)c2cnn3c2NC(c2ccccc2)CC3C(F)(F)F)cc1 (stereo unspecified) | 1.9 µM (≈ 0.787 µg/mL) | 
7 | CC(C)Cc1cc(O)c(-c2ccccc2)c(=O)[nH]1 | 2.2 µM (≈ 0.535 µg/mL) | 
8 | Cc1ccc(C(=O)N2CCOCC2)cc1Nc1nccn1-c1cc(NC2CC2)ncn1 | 0.04 µM (≈ 0.0168 µg/mL) | 
9 | Cc1ccc2nc(C)c(C(=O)NCc3ccc(-c4ccncc4)cc3)n2c1 | 0.01 µM (≈ 0.00356 µg/mL) | log10cfu [7]: 1
10 | CC1(C)CCC(Cc2cc(O)c(-c3ccccc3)c(=O)[nH]2)CC1 | 0.03 µM (≈ 0.00934 µg/mL) | 
